Each structure is given as a SMILES string.

In series [1] the test system is Plasmodium falciparum. The experiment in a line: Antimicrobial activity against Plasmodium falciparum Dd2 infected in human erythrocytes after 72 hrs by SYBR green I fluorescence-based method. The series is classed as functional, cell-based. To be noted: Dd2, 72 h.
The test system of series [2] is Plasmodium falciparum. Put plainly: Antimicrobial activity against Plasmodium falciparum 7G8 infected in human erythrocytes after 72 hrs by SYBR green I fluorescence-based method. It is filed as functional, cell-based. To be noted: 7G8, 72 h.
Series [3] concerns Plasmodium falciparum. Put plainly: Antimicrobial activity against Plasmodium falciparum D6 infected in human erythrocytes after 72 hrs by SYBR green I fluorescence-based method. It is filed as functional, organism-based. The settings on record: D6, 72 h.
In series [4] the test system is Plasmodium falciparum. Put plainly: Antimicrobial activity against Plasmodium falciparum Dd2. It is filed as functional.
The test system of series [5] is Plasmodium falciparum. Put plainly: Antimicrobial activity against chloroquine-resistant Plasmodium falciparum K1. The series is classed as functional, organism-based.
Series [6] concerns Plasmodium falciparum. Put plainly: Antimicrobial activity against chloroquine-sensitive Plasmodium falciparum 3D7. It is filed as functional, organism-based.
For series [7], the system named is Plasmodium falciparum. Put plainly: Antimicrobial activity against chloroquine-resistant Plasmodium falciparum W2 infected in human erythrocytes assessed as incorporation of [3H]-hypoxanthine by beta counting analysis. The series is classed as functional, organism-based.
Series [8] deals with Plasmodium falciparum. Put plainly: Antimicrobial activity against Mq-resistant Plasmodium falciparum D6 infected in human erythrocytes after 72 hrs by SYBR green I fluorescence-based method. It is filed as functional, organism-based. To be noted: D6, 72 h.
Series [9] concerns Plasmodium falciparum. The experiment in a line: Antimicrobial activity against Plasmodium falciparum Cam6 infected in human erythrocytes after 72 hrs by SYBR green I fluorescence-based method. It is filed as functional, organism-based. The settings on record: Cam6, 72 h.
The subject of series [10] is Plasmodium falciparum. The experiment in a line: Antimicrobial activity against Plasmodium falciparum Thai6 infected in human erythrocytes after 72 hrs by SYBR green I fluorescence-based method. The series is classed as functional, organism-based. The settings on record: Thai6, 72 h.
Series [11] concerns Plasmodium falciparum. The experiment in a line: Antimicrobial activity against chloroquine-sensitive Plasmodium falciparum 3D7 infected in human erythrocytes after 72 hrs by SYBR green I fluorescence-based method. It is filed as functional, organism-based. To be noted: 3D7, 72 h.
Series [12] relates to Plasmodium falciparum. Put plainly: Antimicrobial activity against chloroquine/MQ/atrovaquone-resistant Plasmodium falciparum TM90C2B infected in human erythrocytes after 72 hrs by SYBR green I fluorescence-based method. It is filed as functional, organism-based.
Series [13] deals with Plasmodium falciparum. Put plainly: Antimicrobial activity against chloroquine/SP-resistant Plasmodium falciparum W2 infected in human erythrocytes after 72 hrs by SYBR green I fluorescence-based method. It is filed as functional, organism-based. The settings on record: W2, 72 h.
Series [14] in a line: Inhibition of beta-hematin formation. It is filed as physicochemical.

Broadly, the IC50 is the midpoint of a concentration-inhibition curve. As to `CCN(CC)CCNc1c(C)cnc2cc(Cl)ccc12`, the IC50 in the series with Plasmodium falciparum [1], in the series on Plasmodium falciparum [2] and with Plasmodium falciparum [3] was 0.9 nM throughout.
With `COc1cc(NC(C)CCCNc2ccnc3cc(Cl)ccc23)c2ncccc2c1` (stereo not drawn), the IC50 in the series with Plasmodium falciparum [4], in the series on Plasmodium falciparum [5] and in the series with Plasmodium falciparum [6] was 80 nM each time.
In the case of `NCCNCCNc1ccnc2cc(Cl)ccc12`, in the series on Plasmodium falciparum [7], the IC50 is 60 nM.
Regarding `CC(C)(N)CNc1ccnc2cc(Cl)ccc12`, the IC50 in the series on Plasmodium falciparum [8], in the series with Plasmodium falciparum [9], with Plasmodium falciparum [10], in the series with Plasmodium falciparum [11], in the series on Plasmodium falciparum [12] and in the series on Plasmodium falciparum [13] was 5.52 nM each time.
As for `CN(C)C(C)(C)CNc1ccnc2cc(Cl)ccc12`, the IC50 in the series on Plasmodium falciparum [8], in the series on Plasmodium falciparum [9], in the series with Plasmodium falciparum [10], with Plasmodium falciparum [11], in the series with Plasmodium falciparum [12] and in the series with Plasmodium falciparum [13] was 5.52 nM throughout.
In [14], `CCN(CC)CCCC(C)Nc1ccnc2cc(Cl)ccc12` (stereo not drawn) [CHLOROQUINE] came in with an IC50 of 27900 nM.
In the case of `COc1cc(NC(C)CCCN)c2ncccc2c1` (stereo not drawn) [PRIMAQUINE], the IC50 with Plasmodium falciparum [4], in the series with Plasmodium falciparum [5] and in the series on Plasmodium falciparum [6] was 460 nM in each case.

For the origin of these results see ChEMBL document CHEMBL3396969, “Reemergence of chloroquine (CQ) analogs as multi-targeting antimalarial agents: a review” (Eur J Med Chem, 2015).
